In EPA's ToxValDB 9.5:

Key:
[1] = tested on: Rattus norvegicus; details: M/F
[2] = tested on: Mus musculus; details: repeat dose other; oral
[3] = tested on: Rattus norvegicus; details: subchronic, oral, diet, Fischer 344, Hematology: Hct decrease, Hgb decrease, RBC decrease + Blood Chemistry: CPK increase + Absolute Organ Weight: Liver decrease + Relative …
[4] = tested on: Tatera sp.; details: intermediate; duration: 3 months; Inhalation; M/F; Mongolian; neurological
[5] = tested on: Homo sapiens; details: clinical; duration: 3.5 hours; inhalation; M; neurological
[6] = tested on: Rattus norvegicus; details: repeat dose other; oral
[7] = tested on: Phasianus colchicus; details: oral
[8] = tested on: Cavia porcellus; details: subchronic; duration: 90 days; oral; diet; M/F; Guinea Pig; lymphatic
[9] = tested on: Mus musculus; details: acute; duration: 1 days; oral; gavage; F; B6C3F1; immunological
[10] = tested on: Monkey; details: developmental; duration: 16 months; oral; diet; M/F; Rhesus; developmental
[11] = tested on: Rattus norvegicus; details: duration: 7 days, oral, M, Reduced proportion of time spent in open field central zones, increased immobility time in the open field, reduced proportion of time spent …
[12] = tested on: Canidae; details: duration: 26 weeks, oral, capsule, M/F, Beagle, Liquid feces
[13] = tested on: Canidae; details: chronic; duration: 26 weeks; oral; capsule; M/F; Beagle; gastrointestinal
[14] = reproduction developmental, oral, Reduced body weight gain preceding pregnancy reduced body weight gain in offspring during weaning period

Compound: CC(Cl)(Cl)Cl [1,1,1-Trichloroethane]
- NOAEL ([1]; chronic, duration: 2 years, inhalation, liver histopathologic changes): 8190 mg/m3
- NOAEL [2]: 1000 mg/kg-day
- NOEL ([3]; F): 310 mg/kg-day
- NOEL ([3]; M/F): 480 mg/kg-day
- NOAEL [4]: 70 ppm
- LOAEL [5]: 955 mg/m3

Compound: Clc1cc2c(cc1Cl)Oc1cc(Cl)c(Cl)cc1O2 [2,3,7,8-Tetrachlorodibenzo-p-dioxin]
- LOAEL [6]: 1e-05 mg/kg-day
- NOAEL [6]: 1e-06 mg/kg-day
- LOAEL [7]: 0.00014 mg/kg-day
- NOAEL [7]: 1.4e-05 mg/kg-day
- NOAEL [8]: 7e-07 mg/kg-day
- NOAEL [9]: 5e-06 mg/kg-day
- LOAEL [10]: 1.2e-07 mg/kg-day

Compound: CC1(C)C(C=C(Cl)C(F)(F)F)C1C(=O)OC(C#N)c1cccc(Oc2ccccc2)c1 (stereo not drawn) [alpha-Cyhalothrin]
- NOEL ([11]; neurotoxicity): 1 mg/kg-day
- NOEL ([11]; short-term): 1 mg/kg-day
- LOEL ([12]; chronic): 1 mg/kg-day
- LOEL [12]: 1 mg/kg-day
- LEL [1, 14]: 1.5 mg/kg-day
- NOEL [1, 14]: 0.5 mg/kg-day
- NOAEL [13]: 1 mg/kg-day
